Converted amounts (≈) assume the structure as drawn. The source made the active and inactive calls. The calls are words filed in the database; no cut-off is given here.
Assays:
Type in all cases: functional
[1] = test system: Phytophthora infestans; assay: Antifungal activity against Phytophthora infestans after 48 to 72 hrs by disk diffusion method
[2] = test system: Staphylococcus aureus; assay: Antibacterial activity against Staphylococcus aureus after 24 hrs by visual and spectrophotometric analysis
[3] = test system: Staphylococcus aureus; assay: Bactericidal activity against Staphylococcus aureus after 24 hrs by visual and spectrophotometric analysis
[4] = test system: Bacillus subtilis; assay: Antibacterial activity against Bacillus subtilis after 24 hrs by visual and spectrophotometric analysis
[5] = test system: Bacillus subtilis; assay: Bactericidal activity against Bacillus subtilis after 24 hrs by visual and spectrophotometric analysis
[6] = test system: Escherichia coli; assay: Antibacterial activity against Escherichia coli after 24 hrs by visual and spectrophotometric analysis
[7] = test system: Escherichia coli; assay: Bactericidal activity against Escherichia coli after 24 hrs by visual and spectrophotometric analysis
[8] = test system: Klebsiella pneumoniae; assay: Antibacterial activity against Klebsiella pneumoniae after 24 hrs by visual and spectrophotometric analysis
[9] = test system: Klebsiella pneumoniae; assay: Bactericidal activity against Klebsiella pneumoniae after 24 hrs by visual and spectrophotometric analysis
[10] = test system: Staphylococcus aureus; assay: Ratio of MBC to MIC against Staphylococcus aureus
[11] = test system: Bacillus subtilis; assay: Ratio of MBC to MIC against Bacillus subtilis
[12] = test system: Klebsiella pneumoniae; assay: Ratio of MBC to MIC against Klebsiella pneumoniae
[13] = test system: Escherichia coli; assay: Ratio of MBC to MIC against Escherichia coli

| SMILES | MIC [1] [µg/mL] | MIC [2] | MBC [3] | MIC [4] | MBC [5] | MIC [6] | MBC [7] | MIC [8] | MBC [9] | Ratio [10] | Ratio [11] | Ratio [12] | Ratio [13] |
| --- | --- | --- | --- | --- | --- | --- | --- | --- | --- | --- | --- | --- | --- |
| COc1ccc(C2OC(c3ccccc3)=C(c3ccccc3)N2NC(=S)Nc2ccc(Cl)cc2)cc1 (configuration not stated) | 16 (≈ 31.1 µM) |  |  |  |  |  |  |  |  |  |  |  |  |
| Cc1ccc(NC(=S)NN2C(c3ccccc3)=C(c3ccccc3)OC2c2ccc(O)cc2)cc1 (configuration not stated) | 14 (≈ 29.2 µM) |  |  |  |  |  |  |  |  |  |  |  |  |
| COC1=CC(=O)C[C@@H](C)[C@]12Oc1c(Cl)c(OC)cc(OC)c1C2=O [GRISEOFULVIN] | 20 (≈ 56.7 µM) |  |  |  |  |  |  |  |  |  |  |  |  |
| COc1ccc(C2OC(c3ccccc3)=C(c3ccccc3)N2NC(=S)Nc2ccccc2C)cc1 (configuration not stated) |  | 30 µg/mL (≈ 60.8 µM) | 100 µg/mL (≈ 203 µM) | 20 µg/mL (≈ 40.5 µM) | 50 µg/mL (≈ 101 µM) | inactive | inactive | 25 µg/mL (≈ 50.6 µM) | 50 µg/mL (≈ 101 µM) | 3.3 | 2.5 | 2 |  |
| COc1ccc(NC(=S)NN2C(c3ccccc3)=C(c3ccccc3)OC2c2ccc(O)cc2)cc1 (configuration not stated) | 16 (≈ 32.3 µM) |  |  |  |  |  |  |  |  |  |  |  |  |
| COc1ccc(C2OC(c3ccccc3)=C(c3ccccc3)N2NC(=S)Nc2ccc(C)cc2)cc1 (configuration not stated) | 14 (≈ 28.4 µM) |  |  |  |  |  |  |  |  |  |  |  |  |
| COc1ccc(C2OC(c3ccccc3)=C(c3ccccc3)N2NC(=S)Nc2ccccc2OC)cc1 (configuration not stated) |  | 40 µg/mL (≈ 78.5 µM) | 100 µg/mL (≈ 196 µM) | 30 µg/mL (≈ 58.9 µM) | 50 µg/mL (≈ 98.1 µM) | inactive | inactive | inactive | inactive | 2.5 | 1.6 |  |  |
| Oc1ccc(C2OC(c3ccccc3)=C(c3ccccc3)N2NC(=S)Nc2ccccc2)cc1 (configuration not stated) | 10 (≈ 21.5 µM) |  |  |  |  |  |  |  |  |  |  |  |  |
| COc1ccccc1NC(=S)NN1C(c2ccccc2)=C(c2ccccc2)OC1c1ccc(O)cc1 (configuration not stated) |  | inactive | inactive | inactive | inactive | inactive | inactive | 25 µg/mL (≈ 50.4 µM) | 50 µg/mL (≈ 101 µM) |  |  | 2 |  |
| Oc1ccc(C2OC(c3ccccc3)=C(c3ccccc3)N2NC(=S)Nc2ccc(Cl)cc2)cc1 (configuration not stated) | 16 (≈ 32 µM) |  |  |  |  |  |  |  |  |  |  |  |  |
| COc1ccc(C2OC(c3ccccc3)=C(c3ccccc3)N2NC(=S)Nc2ccccc2Cl)cc1 (configuration not stated) |  | inactive | inactive | inactive | inactive | 25 µg/mL (≈ 48.6 µM) | 50 µg/mL (≈ 97.3 µM) | inactive | inactive |  |  |  | 2 |
| O=C(O)c1cn(C2CC2)c2cc(N3CCNCC3)c(F)cc2c1=O [CIPROFLOXACIN] |  | 6.5 µg/mL (≈ 19.6 µM) | 12.5 µg/mL (≈ 37.7 µM) | 10 µg/mL (≈ 30.2 µM) | 25 µg/mL (≈ 75.4 µM) |  | 25 µg/mL (≈ 75.4 µM) | 6.25 µg/mL (≈ 18.9 µM) | 10.2 µg/mL (≈ 30.9 µM) |  |  |  |  |
| Cc1ccccc1NC(=S)NN1C(c2ccccc2)=C(c2ccccc2)OC1c1ccc(O)cc1 (configuration not stated) |  | inactive | inactive | inactive | inactive | inactive | inactive | 50 µg/mL (≈ 104 µM) | 100 µg/mL (≈ 209 µM) |  |  | 2 |  |
| Oc1ccc(C2OC(c3ccccc3)=C(c3ccccc3)N2NC(=S)Nc2ccccc2Cl)cc1 (configuration not stated) |  | 30 µg/mL (≈ 60 µM) | 50 µg/mL (≈ 100 µM) | 40 µg/mL (≈ 80 µM) | 100 µg/mL (≈ 200 µM) | inactive | inactive | inactive | inactive | 1.6 | 2.5 |  |  |

Source: ChEMBL document CHEMBL4052735, “One-pot two-step facile synthesis of 2,3,4,5-tetra substituted dihydrooxazoles and their antimicrobial activity” (2017)
